SMILES strings stand for the structures. Bounds are passed on as bounds.

VEGFR2, unphosphorylated, sequence (P35968 20-1356): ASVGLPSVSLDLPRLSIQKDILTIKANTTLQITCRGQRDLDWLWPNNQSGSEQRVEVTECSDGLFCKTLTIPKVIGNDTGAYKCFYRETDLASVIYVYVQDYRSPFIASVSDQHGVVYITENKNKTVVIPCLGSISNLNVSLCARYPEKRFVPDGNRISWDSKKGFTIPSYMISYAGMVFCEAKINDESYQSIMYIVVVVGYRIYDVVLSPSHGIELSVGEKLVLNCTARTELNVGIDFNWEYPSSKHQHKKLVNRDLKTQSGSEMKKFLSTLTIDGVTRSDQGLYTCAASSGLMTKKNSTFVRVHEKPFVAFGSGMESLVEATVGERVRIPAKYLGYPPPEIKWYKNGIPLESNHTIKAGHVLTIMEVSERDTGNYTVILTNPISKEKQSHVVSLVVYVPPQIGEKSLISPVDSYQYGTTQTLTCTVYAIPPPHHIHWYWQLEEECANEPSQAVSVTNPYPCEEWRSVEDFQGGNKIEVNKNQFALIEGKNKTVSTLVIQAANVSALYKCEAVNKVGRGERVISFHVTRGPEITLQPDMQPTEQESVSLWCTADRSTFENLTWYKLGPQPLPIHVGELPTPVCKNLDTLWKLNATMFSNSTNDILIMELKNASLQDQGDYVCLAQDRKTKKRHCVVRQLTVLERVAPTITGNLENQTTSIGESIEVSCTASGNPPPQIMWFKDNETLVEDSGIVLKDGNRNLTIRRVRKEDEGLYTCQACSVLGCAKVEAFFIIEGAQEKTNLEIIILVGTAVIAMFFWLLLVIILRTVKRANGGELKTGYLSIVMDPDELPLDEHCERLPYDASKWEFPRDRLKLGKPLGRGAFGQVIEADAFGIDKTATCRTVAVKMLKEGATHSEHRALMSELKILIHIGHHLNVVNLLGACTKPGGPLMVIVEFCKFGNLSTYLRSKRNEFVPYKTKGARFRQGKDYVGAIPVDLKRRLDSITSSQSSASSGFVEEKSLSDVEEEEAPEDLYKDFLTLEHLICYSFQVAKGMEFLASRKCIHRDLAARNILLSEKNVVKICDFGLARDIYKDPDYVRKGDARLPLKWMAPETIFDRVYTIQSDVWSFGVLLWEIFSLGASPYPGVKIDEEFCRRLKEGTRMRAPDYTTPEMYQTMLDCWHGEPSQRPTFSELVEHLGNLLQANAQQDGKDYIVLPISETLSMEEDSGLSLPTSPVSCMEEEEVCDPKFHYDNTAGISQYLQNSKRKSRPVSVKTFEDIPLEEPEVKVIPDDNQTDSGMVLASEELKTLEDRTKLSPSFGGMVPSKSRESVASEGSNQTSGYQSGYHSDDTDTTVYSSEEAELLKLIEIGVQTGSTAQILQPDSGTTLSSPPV

This test concerns the target VEGFR2, unphosphorylated (Homo sapiens (Human), UniProt P35968). In words: VEGFR ADP GLO Assay. Type of test: biochemical.
In turn, `Cc1ncc(C(=O)NCCN(CCO)CC2CCCCC2)cc1NC(=O)c1cnn2cc(-c3cnn(C)c3)sc12` [Example 235, N-(5-((2-((cyclohexylmethyl)(2-hydroxyethyl)amino)ethyl)carbamoyl)-2-methylpyridin-3-yl)-2-(1-methyl-1H-pyrazol-4-yl)pyrazolo[5,1-b]thiazole-7-carboxamide] yielded an IC50 of more than 7.5 µM.
Take `COc1ncccc1-c1cn2ncc(C(=O)Nc3cc(C(=O)NCCN4CCC[C@H]4C)cnc3C)c2s1` [Example 242, (R)-2-(2-methoxypyridin-3-yl)-N-(2-methyl-5-((2-(2-methylpyrrolidin-1-yl)ethyl)carbamoyl)pyridin-3-yl)pyrazolo[5,1-b]thiazole-7-carboxamide]: the IC50 is more than 7.5 µM.
`Cc1cc(C(=O)NCCN2CCC(CO)CC2)sc1NC(=O)c1cnn2cc(-c3cnn(C)c3)sc12` [Example 193, N-(5-((2-(4-(hydroxymethyl)piperidin-1-yl)ethyl)carbamoyl)-3-methylthiophen-2-yl)-2-(1-methyl-1H-pyrazol-4-yl)pyrazolo[5,1-b]thiazole-7-carboxamide] had an IC50 of more than 7.5 µM.
In the case of `Cc1ncc(C(=O)NCCN2CC3CCC2C3)cc1NC(=O)c1cnn2cc(-c3cnn(C)c3C)sc12` (stereo not shown) [Example 210, N-(5-((2-(2-azabicyclo[2.2.1]heptan-2-yl)ethyl)carbamoyl)-2-methylpyridin-3-yl)-2-(1,5-dimethyl-1H-pyrazol-4-yl)pyrazolo[5,1-b]thiazole-7-carboxamide] it was more than 7.5 µM; in that of `Cn1cc(-c2cn3ncc(C(=O)Nc4cc(C(=O)NCCN5CCCC5(C)C)ccc4F)c3s2)cn1` [Example 207, N-(5-((2-(2,2-dimethylpyrrolidin-1-yl)ethyl)carbamoyl)-2-fluorophenyl)-2-(1-methyl-1H-pyrazol-4-yl)pyrazolo[5,1-b]thiazole-7-carboxamide], more than 7.5 µM; in that of `Cc1ncc(C(=O)NCCN2CCCC2)cc1NC(=O)c1cnn2cc(-c3cnn(C)c3C)sc12` [Example 220, 2-(1,5-Dimethyl-1H-pyrazol-4-yl)-N-(2-methyl-5-((2-(pyrrolidin-1-yl)ethyl)carbamoyl)pyridin-3-yl)pyrazolo[5,1-b]thiazole-7-carboxamide], more than 7.5 µM.
For `Cc1cc(C(=O)NCCN2CCCC2(C)C)sc1NC(=O)c1cnn2cc(-c3cnn(C)n3)sc12` [Example 186, N-(5-((2-(2,2-dimethylpyrrolidin-1-yl)ethyl)carbamoyl)-3-methylthiophen-2-yl)-2-(2-methyl-2H-1,2,3-triazol-4-yl)pyrazolo[5,1-b]thiazole-7-carboxamide], the IC50 is more than 7.5 µM.
Then `Cc1ncc(NC(=O)OCC(C)N2CCCC2)cc1NC(=O)c1cnn2cc(-c3cnn(C)c3)sc12` (stereo not shown) [Example 248, 2-(pyrrolidin-1-yl)propyl (6-methyl-5-(2-(1-methyl-1H-pyrazol-4-yl)pyrazolo[5,1-b]thiazole-7-carboxamido)pyridin-3-yl)carbamate], with more than 7.5 µM.
In the case of `Cc1cc(C(=O)NCCN2[C@H](C)CCC[C@@H]2C)sc1NC(=O)c1cnn2cc(-c3cnn(C)c3)sc12` [Example 198, N-(5-((2-((2S,6R)-2,6-dimethylpiperidin-1-yl)ethyl)carbamoyl)-3-methylthiophen-2-yl)-2-(1-methyl-1H-pyrazol-4-yl)pyrazolo[5,1-b]thiazole-7-carboxamide] it was more than 7.5 µM.
`Cc1ncc(C(=O)NCCN2C[C@H]3CC[C@@H]2C3)cc1NC(=O)c1cnn2cc(-c3cnn(C)c3C)sc12` [Example 208, N-(5-((2-((1R,4S)-2-azabicyclo[2.2.1]heptan-2-yl)ethyl)carbamoyl)-2-methylpyridin-3-yl)-2-(1,5-dimethyl-1H-pyrazol-4-yl)pyrazolo[5,1-b]thiazole-7-carboxamide]: the IC50 was more than 7.5 µM.
`COc1ncccc1-c1cn2ncc(C(=O)Nc3cc(NC(=O)CN4CCCC4(C)C)cnc3C)c2s1` [Example 233, N-(5-(2-(2,2-dimethylpyrrolidin-1-yl)acetamido)-2-methylpyridin-3-yl)-2-(2-methoxypyridin-3-yl)pyrazolo[5,1-b]thiazole-7-carboxamide]: the IC50 was more than 7.5 µM.
Consider `Cc1cc(C(=O)NCCN2CCC(C)(C)C2)sc1NC(=O)c1cnn2cc(-c3cnn(C)c3)sc12` [Example 189, N-(5-((2-(3,3-dimethylpyrrolidin-1-yl)ethyl)carbamoyl)-3-methylthiophen-2-yl)-2-(1-methyl-1H-pyrazol-4-yl)pyrazolo[5,1-b]thiazole-7-carboxamide], for which the half-inhibitory concentration (IC50) is more than 7.5 µM.
Take `Cc1ncc(NC(=O)CN2CCCC2(C)C)cc1NC(=O)c1cnn2cc(-c3cnn(C)c3)sc12` [Example 13, N-(5-(2-(2,2-dimethylpyrrolidin-1-yl)acetamido)-2-methylpyridin-3-yl)-2-(1-methyl-1H-pyrazol-4-yl)pyrazolo[5,1-b]thiazole-7-carboxamide]: the IC50 was more than 7.5 µM.
Regarding `Cc1ncc(C(=O)NC2CN(C(C)(C)C)C2)cc1NC(=O)c1cnn2cc(-c3cccc4c3cnn4C)sc12` [Example 238, N-(5-((1-(tert-butyl)azetidin-3-yl)carbamoyl)-2-methylpyridin-3-yl)-2-(1-methyl-1H-indazol-4-yl)pyrazolo[5,1-b]thiazole-7-carboxamide], the IC50 was more than 2.5 µM.
Then `Cc1ncc(NC(=O)OCCN(C)C2CCCCC2)cc1NC(=O)c1cnn2cc(-c3cnn(C)c3)sc12` [Example 251, 2-(cyclohexyl(methyl)amino)ethyl (6-methyl-5-(2-(1-methyl-1H-pyrazol-4-yl)pyrazolo[5,1-b]thiazole-7-carboxamido)pyridin-3-yl)carbamate], with more than 7.5 µM; and `Cc1ncc(C(=O)NCCN2CCCC2(C)C)cc1NC(=O)c1cnn2cc(-c3cccc4c3cnn4C)sc12` [Example 240, N-(5-((2-(2,2-dimethylpyrrolidin-1-yl)ethyl)carbamoyl)-2-methylpyridin-3-yl)-2-(1-methyl-1H-indazol-4-yl)pyrazolo[5,1-b]thiazole-7-carboxamide], with more than 2.5 µM.
Turning to `Cc1cc(C(=O)NCCN2CCC3(CCC3)CC2)sc1NC(=O)c1cnn2cc(-c3cnn(C)c3)sc12` [Example 203, N-(5-((2-(7-azaspiro[3.5]nonan-7-yl)ethyl)carbamoyl)-3-methylthiophen-2-yl)-2-(1-methyl-1H-pyrazol-4-yl)pyrazolo[5,1-b]thiazole-7-carboxamide], the IC50 is more than 7.5 µM.
Turning to `Cc1ncc(C(=O)NCCN2CCCC2)cc1NC(=O)c1cnn2cc(-c3cn(C)nc3C(F)(F)F)sc12` [Example 227, 2-(1-Methyl-3-(trifluoromethyl)-1H-pyrazol-4-yl)-N-(2-methyl-5-((2-(pyrrolidin-1-yl)ethyl)carbamoyl)pyridin-3-yl)pyrazolo[5,1-b]thiazole-7-carboxamide], the IC50 was more than 0.833 µM.
The molecule `Cc1ncc(NC(=O)OCCN2CC3CCC2C3)cc1NC(=O)c1cnn2cc(-c3cnn(C)c3)sc12` (stereo not shown) [Example 250, 2-(2-azabicyclo[2.2.1]heptan-2-yl)ethyl (6-methyl-5-(2-(1-methyl-1H-pyrazol-4-yl)pyrazolo[5,1-b]thiazole-7-carboxamido)pyridin-3-yl)carbamate] came in with an IC50 of more than 7.5 µM.
In the case of `Cc1ncc(C(=O)NCCN2CCCC23CCC3)cc1NC(=O)c1cnn2cc(-c3c(C)nn(C)c3C)sc12` [Example 214, N-(5-((2-(5-azaspiro[3.4]octan-5-yl)ethyl)carbamoyl)-2-methylpyridin-3-yl)-2-(1,3,5-trimethyl-1H-pyrazol-4-yl)pyrazolo[5,1-b]thiazole-7-carboxamide] it was more than 7.5 µM; in that of `Cc1cc(C(=O)NCCN2CCCC2(C)C)sc1NC(=O)c1cnn2cc(-c3cncnc3)sc12` [Example 185, N-(5-((2-(2,2-dimethylpyrrolidin-1-yl)ethyl)carbamoyl)-3-methylthiophen-2-yl)-2-(pyrimidin-5-yl)pyrazolo[5,1-b]thiazole-7-carboxamide], more than 7.5 µM.
`Cc1ncc(NC(=O)CN2CCc3cnn(C)c3C2)cc1NC(=O)c1cnn2cc(-c3cnn(C)c3)sc12` [Example 17, 2-(1-methyl-1H-pyrazol-4-yl)-N-(2-methyl-5-(2-(1-methyl-4,5-dihydro-1H-pyrazolo[3,4-c]pyridin-6 (7H)-yl)acetamido)pyridin-3-yl)pyrazolo[5,1-b]thiazole-7-carboxamide]: the IC50 was more than 7.5 µM.

These data come from patent US20240109917A1 (ACTELION PHARMACEUTICALS LTD, priority 2020, published 2024).
